Assay results taken from US11311524B2, “Pharmaceutical composition used for treatment of HTLV-1-associated myelopathy” (DAIICHI SANKYO COMPANY, LIMITED, priority 2017, dated 2022).

Key:
HAM patient-derived PBMC = assay: Autoproliferation (3H-thymidine incorporation) of HAM patient-derived PBMC without stimulation; format: cell-based, human; conditions: for Suppression of autoproliferation activity of HAM patient-derived PBMC: no stimulation, relative to DMSO group; for GI50: Homo sapiens, PBMC of 8 HAM patients, 6 days culture, 3H-thymidine, read-out: GI50, autoproliferation activity of HAM patient-derived PBMC
Experimental: PBMC taken from 8 HAM patients were suspended in culture mediums (RPMI1640 culture medium (wako) containing 10% FBS (GIBCO)), seeded in a 96-well round-bottom plate in a ratio of 1×10^5 cells per well (3 wells were used for each concentration), and compound A or compound B was added so as to provide a final concentration of 1, 10, 100 or 1000 nM. Culture was carried out at 37° C. in 5% CO2 conditions for 6 days. The DMSO treatment group and the PSL (1 μg/mL) treatment group were used as controls. Day 6 after initiation of culture, 1 μCi ^3H-thymidine was added to each well and culture was carried out at 37° C., in 5% CO2 conditions for 16 hours. Thereafter, the cultured cells were allowed to adsorb to a glass filter (Printed Filtermat A, PerkinElmer) by a cell harvester (Tomtec MH3, PerkinElmer), dried and impregnated with solid scintillator Meltilex-A (PerkinElmer). The amount of the ^3H-thymidine incorporated in the cells was measured by use of MicroBeta (WALLAC MicroBeta TriLux 1450-021) (Yamano et al., PLoS One. 2009, 4(8): e6517). Based on the average count of ^3H-thymidine in the DMSO treatment group of HAM patients' PBMC as 100%, the relative values of the groups treated with compound A, compound B and PSL (1 μg/mL) were obtained by calculation, and then, an average value of 8 HAM patient cases was obtained. A significance test was carried out in accordance with the Friedman test of GraphPad Prism6 (MDF).
The number of patients was increased to 16 and the same experiment as above was carried out.
Effect on HAM patient-derived PBMC was checked in the same manner as in the above Example except that an EZH2 inhibitor was used in place of compounds A and B.
As the EZH2 inhibitor, GSK126 (CAS No.: 1346574-57-9) and E7438 (CAS No.: 1403254-99-8) were used. The concentration for treatment was 1, 10, 100, 1000 or 10000 nM in terms of final concentration. In the experiment, PBMC samples taken from the 8 persons before the number of cases increased in the above were used.

[1] = test system: HTLV-1 infected cells in HAM patient's PBMC; assay: HTLV-1 pro-viral load (infected cell rate) in HAM patient-derived PBMC by real time PCR; format: cell-based, human; conditions: PSL 1 μg/ml control, this experimental system or clinical sites
Experimental: PBMC taken from 8 HAM patients were suspended in a culture medium (RPMI1640 culture medium containing 10% FBS) and seeded in a 48-well plate in a ratio of 5×10^5 cells per well, and compound A or compound B was added so as to provide a final concentration of 1, 10, 100 or 1000 nM. The culture solution of 0.5 mL in total was cultured at 37° C. in 5% CO2 conditions for 12 days. A group treated with DMSO and a group treated with PSL (1 μg/mL) were used as controls. Day 12 after initiation of culture, the culture solution was centrifuged, and thereafter, the cell suspension was recovered from each of the cultures carried out under different conditions and centrifuged. After the supernatant was removed, the cell pellet was subjected to genomic DNA extraction. The genome DNA extracted was subjected to real time PCR to measure HTLV-1 pro-viral load (infected cell rate) (Yamano et al., Blood. 2002, 99 (1): 88-94). Based on the HTLV-1 pro-viral load in cells, which were obtained by adding DMSO to each of the HAM patient's PBMC and culturing the PBMC, as 100%, the relative value of HTLV-1 pro-viral load in a group treated with compound A, compound B or PSL was calculated, and then, an average value of 8 HAM patient cases was obtained. The significance test was carried out by using the Friedman test of GraphPad Prism6 (MDF).

Structure (SMILES) | Suppression of autoproliferation activity of HAM patient-derived PBMC (HAM patient-derived PBMC) | Infected cell removal activity [1] | GI50 (HAM patient-derived PBMC) [nM]
C[C@]12C=CC(=O)C=C1CC[C@@H]1[C@@H]2[C@@H](O)C[C@@]2(C)[C@H]1CC[C@]2(O)C(=O)CO [PSL, prednisolone, reference compound] | can suppress autoproliferation activity | does not exhibit infected cell removal activity | –
CCN(c1cc(-c2ccc(CN3CCOCC3)cc2)cc(C(=O)NCc2c(C)cc(C)[nH]c2=O)c1C)C1CCOCC1 [E7438, N-((4,6-Dimethyl-2-oxo-1,2-dihydropyridin-3-yl)methyl)-5-(ethyl(tetrahydro-2H-piran-4-yl)amino)-4-methyl-4′-(morpholinomethyl)-[1,1′-biphenyl]-3-carboxamide, reference compound] | suppress autoproliferation activity | – | 214
CC[C@H](C)n1cc(C)c2c(C(=O)NCc3c(C)cc(C)[nH]c3=O)cc(-c3ccc(N4CCNCC4)nc3)cc21 [GSK126, N-[(1,2-Dihydro-4,6-dimethyl-2-oxo-3-pyridinyl)methyl]-3-methyl-1-[(1S)-1-methylpropyl]-6-[6-(1-piperazinyl)-3-pyridinyl]-1H-indole-4-carboxamide, reference compound] | suppress autoproliferation activity | – | 724
